Laboratory results taken from PMC6495176, “Steroidal antibiotics are antimetabolites of Acanthamoeba steroidogenesis with phylogenetic implications” (Journal of Lipid Research, 2019).

Tests used:
24-AcSMT [1] = target: T1, 24-AcSMT (Acanthamoeba castellanii, UniProt L8GNG7); test: steady-state inhibition of cycloartenol methylation by recombinant enzyme; also turned over to ERGT (GC-MS); type: biochemical
T1 construct: gene ACA1_193300; recombinant 24-AcSMT (XP_004336540) expressed in E. coli, lysate preparation

28-AcSMT [2] = target: T2, 28-AcSMT (Acanthamoeba castellanii, UniProt L8GKC5); test: steady-state inhibition of […]([…])-methylene lophenol methylation by recombinant enzyme, GC-MS; partition ratio and substrate protection; type: biochemical
T2 construct: gene ACA1_237870; recombinant 28-AcSMT (XP_004335307) expressed in E. coli, lysate preparation

28-AcSMT [3] = target: T3, 28-AcSMT (Acanthamoeba castellanii, UniProt L8GKC5); test: MALDI-TOF mass shift and retention of 3H-label after Ni-NTA purification; GC-MS of diol products; type: binding
T3 construct: gene ACA1_237870
T3 sequence (L8GKC5 1-346): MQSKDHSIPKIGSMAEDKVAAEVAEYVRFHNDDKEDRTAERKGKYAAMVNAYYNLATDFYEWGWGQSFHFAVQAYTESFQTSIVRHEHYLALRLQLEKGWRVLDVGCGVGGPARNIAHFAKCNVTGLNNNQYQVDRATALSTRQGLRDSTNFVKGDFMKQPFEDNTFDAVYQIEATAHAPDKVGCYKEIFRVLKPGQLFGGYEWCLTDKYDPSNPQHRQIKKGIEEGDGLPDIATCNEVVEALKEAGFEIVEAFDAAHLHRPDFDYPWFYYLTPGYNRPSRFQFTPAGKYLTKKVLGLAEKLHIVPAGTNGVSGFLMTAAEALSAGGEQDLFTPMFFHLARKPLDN

24-AcSMT [4] = target: T1, 24-AcSMT; test: native substrate in steady-state SMT assay (Km); type: biochemical; details: cited from earlier work
[5] = substrate: C=C(CC[C@@H](C)[C@H]1CC[C@H]2C3=CC[C@H]4[C@H](C)[C@@H](O)CC[C@]4(C)[C@H]3CC[C@]12C)C(C)C; test: cells, lysate or membranes; type: biochemical, Acanthamoeba castellanii; details: SAM active site

T1 sequence (L8GNG7 entry or part of it): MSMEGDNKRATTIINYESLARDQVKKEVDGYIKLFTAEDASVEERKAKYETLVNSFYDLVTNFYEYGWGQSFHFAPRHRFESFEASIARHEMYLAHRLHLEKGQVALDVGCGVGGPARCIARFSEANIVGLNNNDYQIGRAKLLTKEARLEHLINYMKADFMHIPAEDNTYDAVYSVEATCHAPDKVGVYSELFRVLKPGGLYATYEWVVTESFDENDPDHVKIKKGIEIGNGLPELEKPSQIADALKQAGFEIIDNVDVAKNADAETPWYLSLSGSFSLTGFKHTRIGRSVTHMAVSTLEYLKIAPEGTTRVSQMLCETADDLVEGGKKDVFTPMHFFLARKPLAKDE

Molecule: CC(C)=C/C=C/[C@@H](C)[C@H]1CC[C@H]2C3=CC=C4C[C@@H](O)CC[C@]4(C)[C@H]3CC[C@]12C [CHT]
- Ki (24-AcSMT [1]): 18 µM
- Ki (28-AcSMT [2]): 8 µM

Molecule: C=C(/C=C/[C@@H](C)[C@H]1CC[C@H]2C3=CC=C4C[C@@H](O)CC[C@]4(C)[C@H]3CC[C@]12C)C(C)C [compound 15, ergosta-5,7,22,24(28)-tetraen-3-ol]
- MALDI-TOF mass shift and retention of 3H-label after Ni-NTA purification; GC-MS (28-AcSMT [3]): irreversible nature of the ERGT-28-AcSMT complex was further confirmed by MALDI-TOF analysis showing an increase in molecular mass

Molecule: CC(C)=CCC[C@@H](C)[C@H]1CC[C@@]2(C)[C@@H]3CC[C@H]4C(C)(C)[C@@H](O)CC[C@@]45C[C@@]35CC[C@]12C [cycloartenol]
- Km (24-AcSMT [4]): 48 µM

B1: 28-AcSMT (Acanthamoeba castellanii str. Neff) (protein)
chain: T3 sequence (L8GKC5 1-346)
notes: recombinant 28-AcSMT (XP_004335307) expressed in E. coli, lysate preparation
- Km [5]: 44 µM
